From patent publication US9186337B2, “Lysine demethylase inhibitors for diseases and disorders associated with Hepadnaviridae” (Oryzon Genomics S.A., priority 2010, dated 2015)
pEC50, pIC50: −log10 of the molar value.

Key:
[1] = Cytotoxicity in anti-HBV assay; format: cell-based; conditions: human; HepG2-2.2.15 cells
Method: (§1) Anti-HBV assays were conducted at Southern Research Organization using an HBV DNA replicon with a luciferase reporter.
(§2) Southern Research reports HepG2-2.2.15 is a stable cell line containing the hepatitis B virus (HBV) ayw strain genome. Antiviral compounds blocking any late step of viral replication such as transcription, translation, pregenome encapsidation, reverse transcription, particle assembly and release can be identified and characterized using this cell line. Initially we test whether a compound will reduce the production of secreted HBV from cells utilizing our real time quantitative PCR (TaqMan) HBV DNA assay.

[2] = system: hepatitis B virus (HBV) ayw strain; experiment: Anti-HBV assay with HepG2-2.2.15 cells (HBV DNA replication); format: cell-based; conditions: for Selectivity Index SI50: HepG2-2.2.15 cells; for pEC50: Hepatitis B virus, HepG2 2.2.15, read-out: Antiviral Activity EC50
Method: as §1, §2

[3] = Maximum tolerated dose study in mice; format: in vivo; conditions: IP, 20, 40 and 60 mg/kg daily for 10 days
Method: (§3) Maximum tolerated dose studies and pharmacokinetics for several LSD1 inhibitors were assessed to determine if the compound can be administered to mammals safely at does that are expected to achieve therapeutic effects. In particular, compound X was given to mice IP at 20 mg/kg 40 mg/kg and 60 mg/kg daily for 10 days in a MTD study conducted at Leitat.

[4] = Pharmacokinetics (PK studies); format: in vivo, mice; conditions: at the MTD study doses, in words
Method: as §3

SMILES: Nc1ccn([C@@H]2CS[C@H](CO)O2)c(=O)n1 (relative stereo) [Compound 3TC, (2R, cis)-4-amino-1-(2-hydroxymethyl-1,3-oxathiolan-5-yl)-(1H)-pyrimidin-2-one, reference compound]
- pIC50 [1]: 4.22
- Selectivity Index SI50 [2]: >100
- pEC50 [2]: 8.00

SMILES: NC1CC1c1ccc(-c2cccc(O)c2)cc1 (stereo not drawn) [Compound X]
- tolerability in MTD study [3]: tolerated with acceptable toxicity
- pIC50 [1]: 4.26
- Selectivity Index SI50 [2]: 26.8
- pEC50 [2]: 5.65
- activity in an HBV DNA replication assay ([2]; in words): low micromolar range
- Cmax [4]: expected to result in therapeutic levels
